Results as given in patent US20200077656A1, “Use of an Acyclic Picolinamide Compound as a Fungicide for Control of Phytopathogenic Fungi in Row Crops” (priority 2017, published 2020).

Experiments:
Type in all cases: in vivo
Cercospora zeae-maydis = assay: Field assessment of Cercospora zeae-maydis (CERCZM) in corn; details: EC + Trycol adjuvant
Protocol: Field Assessment of Cercospora zeae-Maydis (CERCZM) in Corn: […] The experimental plots were inoculated with grey leaf spot 24 hr after application. […] Disease severity (percentage of visual diseased foliage on whole plot) was assessed five times during the trial (22-50 days after application, DAA). The disease infection was recorded following EPPO PP1/26 guideline prescriptions. Area under the disease progress curve (AUDPC) was calculated for each plot using the sets of recorded severity data. Relative AUDPC (% control based on AUDPC) was calculated as percent of the nontreated control.

Ramularia collo-cygni = assay: Field assessment of Ramularia collo-cygni (RAMUCC) on barley; details: 5% EC + Trycol adjuvant, winter barley
Protocol: Field Assessment of Ramularia […]) on Barley: A fungicidal treatment containing a 5% EC formulation of compound I, tanked mixed with an adjuvant (Trycol, 50% w/w at 0.1% v/v), was sprayed on barley plants (winter barley; Cassia variety) at BBCH 33 growth stage of winter barley (5% infection on L5 at application), under natural infection of Ramularia leaf spot of barley. […] Disease severity was recorded as a percentage of visual diseased foliage on whole plot. Ramularia leaf spot of barley infection was assessed three times at 7, 14 and 21 days after the last application. The disease infection was recorded following EPPO PP1/26 guideline prescriptions. Area under the disease progress curve (AUDPC) was calculated for each plot using the sets of recorded severity data. Relative AUDPC (% control based on AUDPC) was calculated as percent of the nontreated control.

Pyrenophora teres = assay: Field assessment of Pyrenophora teres (PYRNTE) on barley, Trial 1 (inoculated); details: EC + Trycol
Excerpt: Field Assessment of Pyrenophora teres ([…]) on Barley: A fungicidal treatment containing an EC formulation of compound I, tanked mixed with an adjuvant (Trycol, 50% w/w at 0.1% v/v), was sprayed on barley plants (spring barley; […] variety) twice, the first application at BBCH 37-43 growth stages of spring barley (0.01% infection on L1 at application) and the second application at growth stages 53-57 of spring barley (6.25% infection at application). […] The experimental plots were inoculated with net blotch of barley (1,000,000 spores/mL) at growth stage 39 of spring barley 1 day after the first […]. […] Disease severity was recorded as a percentage of visual diseased foliage on whole plot. Net blotch of barley infection was assessed three times at 7, 14 and 21 days after the last application. The disease infection was recorded following EPPO PP1/26 guideline prescriptions. Area under the disease progress curve (AUDPC) was calculated for each plot using the sets of recorded severity data. Relative AUDPC (% control based on AUDPC) was calculated as percent of the nontreated control.

Cercospora arachidicola = assay: Field assessment of Cercospora arachidicola (MYCOAR) in peanut; details: Table 8, early leaf spot of peanut, AUDPC based
Cercospora sojina = assay: Field assessment of Cercospora sojina (CERSO) in soybean; details: for Percent Visual Severity of CERCSO: soybean upper canopy, untreated 8.6; for CERCSO Percent of Untreated (AUDPC): leaftop severity
[1] = 50 g/ha, Agnique BP420 200 mL/ha
[2] = 75 g/ha, Agnique BP420 300 mL/ha
[3] = 100 g/ha, Adsee C80W 80% 250 g/ha
[4] = 100 g/ha, Agnique BP420 400 mL/ha
[5] = 150 g/ha, Agnique BP420 600 mL/ha

With `COc1ccnc(C(=O)N[C@@H](C)C(=O)O[C@@H](C)C(c2ccc(F)cc2)c2ccc(F)cc2)c1OC(C)=O` [Compound I, (S)-1,1-bis(4-fluorophenyl)propan-2-yl (3-acetoxy-4-methoxypicolinoyl)-L-alaninate] the “Disease control of CERCZM, percent control based on AUDPC” value (Cercospora zeae-maydis; 50 g ai/ha) was “B (51-75)”, the “Disease control of CERCZM, percent control based on AUDPC” value (Cercospora zeae-maydis; 100 g ai/ha) was “B (51-75)” and the “Disease control of CERCZM, percent control based on AUDPC” value (Cercospora zeae-maydis; 150 g ai/ha) was “B (51-75)”. The “Disease control of RAMUCC, percent control based on AUDPC” value (Ramularia collo-cygni; 75 g ai/ha) was “C (26-50)”, the “Disease control of RAMUCC, percent control based on AUDPC” value (Ramularia collo-cygni; 100 g ai/ha) was “C (26-50)” and the “Disease control of RAMUCC, percent control based on AUDPC” value (Ramularia collo-cygni; 150 g ai/ha) was “B (51-75)”. The “% Control (AUDPC) of PYRNTE, Trial 1” value (Pyrenophora teres; 75 g ai/ha) was “B (51-75)”, the “% Control (AUDPC) of PYRNTE, Trial 1” value (Pyrenophora teres; 100 g ai/ha) was “B (51-75)” and the “% Control (AUDPC) of PYRNTE, Trial 1” value (Pyrenophora teres; 150 g ai/ha) was “B (51-75)”. The “Calc Percent Control of MYCOAR” value (Cercospora arachidicola; [1]) was 31.5%, the “Calc Percent Control of MYCOAR” value (Cercospora arachidicola; 50 g/ha, MSO 100 g/ha) was 32.0% and the “Calc Percent Control of MYCOAR” value (Cercospora arachidicola; [2]) was 35.6%. The “Calc Percent Control of MYCOAR” value (Cercospora arachidicola; 75 g/ha, MSO 150 g/ha) was 36.3%, the “Calc Percent Control of MYCOAR” value (Cercospora arachidicola; [3]) was 40.3% and the “Calc Percent Control of MYCOAR” value (Cercospora arachidicola; [4]) was 44.8%. The “Calc Percent Control of MYCOAR” value (Cercospora arachidicola; 100 g/ha, MSO 200 g/ha) was 44.4%, the “Calc Percent Control of MYCOAR” value (Cercospora arachidicola; [5]) was 57.7% and the “Calc Percent Control of MYCOAR” value (Cercospora arachidicola; 150 g/ha, MSO 300 g/ha) was 52.3%. The “Percent Visual Severity of CERCSO” value (Cercospora sojina; [1]) was 5.6%, the “Percent Visual Severity of CERCSO” value (Cercospora sojina; 50 g/ha, MSO 100 g/ha) was 6.5% and the “Percent Visual Severity of CERCSO” value (Cercospora sojina; [2]) was 4.2%. The “Percent Visual Severity of CERCSO” value (Cercospora sojina; 75 g/ha, MSO 150 g/ha) was 3.6%, the “Percent Visual Severity of CERCSO” value (Cercospora sojina; [3]) was 4.5% and the “Percent Visual Severity of CERCSO” value (Cercospora sojina; [4]) was 4.5%. For the same compound, the “Percent Visual Severity of CERCSO” value (Cercospora sojina; 100 g/ha, MSO 200 g/ha) was 4.3%, the “Percent Visual Severity of CERCSO” value (Cercospora sojina; [5]) was 3.3% and the “Percent Visual Severity of CERCSO” value (Cercospora sojina; 150 g/ha, MSO 300 g/ha) was 3.3%. The “CERCSO Percent of Untreated (AUDPC)” value (Cercospora sojina; [1]) was 62.0%, the “CERCSO Percent of Untreated (AUDPC)” value (Cercospora sojina; 50 g/ha, MSO 100 g/ha) was 73.8% and the “CERCSO Percent of Untreated (AUDPC)” value (Cercospora sojina; [2]) was 63.1%. For the same compound, the “CERCSO Percent of Untreated (AUDPC)” value (Cercospora sojina; 75 g/ha, MSO 150 g/ha) was 62.9%, the “CERCSO Percent of Untreated (AUDPC)” value (Cercospora sojina; [3]) was 58.3% and the “CERCSO Percent of Untreated (AUDPC)” value (Cercospora sojina; [4]) was 61.6%. For the same compound, the “CERCSO Percent of Untreated (AUDPC)” value (Cercospora sojina; 100 g/ha, MSO 200 g/ha) was 52.4%, the “CERCSO Percent of Untreated (AUDPC)” value (Cercospora sojina; [5]) was 48.4% and the “CERCSO Percent of Untreated (AUDPC)” value (Cercospora sojina; 150 g/ha, MSO 300 g/ha) was 53.5%.
